Results taken from patent US11203582B2, “Benzamide derivatives for inhibiting endoplasmic reticulum (ER) stress” (The Board of Regents of the University of Oklahoma, priority 2017, dated 2021).

What was measured:
βTC6 cells = test: Cell survival assay, intracellular ATP, βTC6 cells treated with Tm; type: cell-based; conditions: 72 h, FIG. 2C
Source text: The measurement of intracellular ATP level was use as a surrogate assay for cell viability. […] To confirm the authenticity of 13d's protective effect on β-cell viability (not simply an increase in ATP-specific measurement), we used the MTT assay, which measures the activity of NAD(P)H-dependent cellular oxidoreductase enzymes, as an orthogonal method to measure cell viability. […] To determine whether the protective effect of 13d on β-cells is specific to INS-1 cells, another β-cell line, βTC6, was used. […] In addition, compound 13d on its own had no effect on β-cell viability in both cell lines (FIG. 2C-D). […]
INS-1 cells or βTC6 cells were seeded at 3×10^3 cells/well in a 384-well plate and treated with compounds at the indicated concentrations. […] Cell viability was measured with an EnVision multilabel plate reader (PerkinElmer, MA, USA).

cleaved caspase-3 = test: Western blotting of cleaved caspase-3 in Tm-treated INS-1 cells; type: cell-based, rat; conditions: Tm co-treatment, 24 h
Description: (§1) To determine whether the increase in β-cell viability following treatment with 13d is caused by a suppression of apoptotic cell death, several apoptosis-related makers were measured. First, levels of cleaved caspase-3 and cleaved PARP were assayed by Western blotting. Caspase-3, a member of executioner caspases activated by cleavage, plays essential roles in initiating apoptotic signaling and executing the final stages of cell death, whereas the nuclear enzyme poly (ADP-ribose) polymerase (PARP) plays an important role in a number of cellular processes involving DNA repair and cell death. […] However, upon severe ER stress, caspase 3 undergoes proteolytic cleavage to produce two subunits that dimerize to form the active enzyme, which in turns cleaves PARP. […] A further assessment of apoptotic INS-1 cell death was performed using TUNEL assays to detect nuclear DNA fragmentation (a consequence of cell apoptosis) in situ.
(§2) INS-1 cells were seeded in 60-mm dishes at 8×10^5 cells/dish and treated for the indicated times. Cells were then washed with PBS and lysed with lysis buffer (Cell Signaling Technology, Danvers, Mass.) containing EDTA (Thermo, Ill.) and phosphatase inhibitors (Thermo). Aliquots of 20 μg total protein were separated on 7% SDS-PAGE gels (Life Technologies) and transferred to PVDF membranes (Life Technologies). […]

cleaved PARP = test: Western blotting of cleaved PARP in Tm-treated INS-1 cells; type: cell-based, rat; conditions: Tm co-treatment, 24 h
Description: as §1, §2

INS-1 cells = test: Glucose-stimulated insulin secretion (ELISA) in Tm-treated INS-1 cells; type: cell-based, rat; conditions: Tm 0.1 μg/mL, 24 h, 20 mM glucose
Description: (A-D) INS-1 cells were treated with or without Tm (0.1 m/mL) in the presence of 13d at indicated concentrations or DMSO for 24 h. The mRNA levels of INS1 (A), INS2 (B), PDX1 (C), and MafA (D), were analyzed by qRT-PCR. Relative mRNA levels were normalized against the housekeeping gene Cyclophilin A using the comparative CT method. The results are the means of 3 replicate wells and are representative of 3 independent experiments. * P<0.05 and ** P<0.01 compared with Tm treatment alone. Bars indicate SD. (E) Insulin secretion by INS-1 cells incubated with 1.7 mM and 20 mM glucose in the presence or absence of Tm (0.1 μg/mL) and 13d. Secreted insulin was measured by ELISA after 24 h treatment. * P<0.05. The amount of insulin secreted in response to 1.7 mM glucose in the absence of Tm was set to 1.0 and was normalized with total protein concentration.
INS-1 or primary human islet cells were plated in 96-well plates. The second day, Tm and test compound were added and maintained for 24 h (INS-1) or 48 h (human islets). […] The secreted insulin was measured with insulin ELISA kits (for mouse insulin from Millipore and for human insulin from LifeTech). Cells were lysed with RIPA buffer (50 mM Tris HCl pH 7.4, 1% NP-40, 0.25% sodium deoxycholate, 150 mM NaCl), and total cellular protein was determined with a Bradford protein assay. […]

## O=C(NCc1ccc(C(F)(F)F)cc1)c1cccc(CN2CCCCC2)c1 [Compound 13d, N-(4-trifluoromethylphenmethyl)-3-(N-piperidinyl)methyl benzamide]
βTC6 cells; Tm 0.3 μg/mL
  viability of βTC6 cells under Tm treatment (intracellular ATP): rescued the viability of βTC6 cells in a dose-dependent manner
βTC6 cells; βTC6 cells, no Tm
  effect of compound on its own on β-cell viability: no effect
Cleaved caspase-3
  Tm-induced cleavage of caspase-3: completely or significantly diminished
Cleaved PARP
  Tm-induced cleavage of PARP: completely or significantly diminished
INS-1 cells
  glucose-stimulated insulin secretion (GSIS) in Tm-treated cells: significantly rescued
